Read-outs that look alike come from different tables or passages of the source.
Tests used:
[1] = test system: L. infantum promastigotes; test: Antipromastigote assay (L. infantum), MTT colorimetric; type: cell-based, Leishmania (L.) infantum; conditions: 48 h; for IC50: Leishmania infantum, read-out: L. infantum IC50 promastigotes
Procedure: (§1) Table 1 depicts the antileishmanial (L. infantum) activity evaluation performed against both the amastigote form (evaluated microscopically using an ex vivo intracellular model of mice macrophages) and the promastigote one (using an MTT colorimetric method).[32],[33] The cytotoxicity was evaluated against NCTC cells using an MTT colorimetric method and the selectivity index was determined using the ratio between the CC50 values (NCTC cells) and the IC50 values (amastigotes).[32] […] With respect to the substituents on the C ring, larger, hydrophobic groups conferred greater bioactivity (e.g., 9b–d), whereas small, hydrophilic groups such as a hydroxyl group afford modest to poor bioactivity.
(§2) Leishmania (L.) infantum (MHOM/BR/1972/LD) amastigotes were obtained from golden hamsters (Mesocricetus auratus) spleens following 60-70 days of infection via differential centrifugation. The Stauber method was used to determine the number of parasites.12 […]
Biological activity assays
Antipromastigote Assay (L. infantum)
L. infantum promastigotes (1 × 10^6 cells/well) were added to a 96-well plates. Treatment of the cells with selected compounds (serially diluted 0.14 to 200 μM) was performed in M199 medium supplemented with 0.25% hemin and 10% fetal bovine serum for 48 h at 24 °C. The MTT colorimetric assay was used to determine the activity (IC50) of the compounds. Miltefosine was used as a standard drug and untreated promastigotes were used as a negative control. The half inhibitory concentration (IC50) was determined from a sigmoidal regression of the concentration-response curves generated in GraphPadPrism7. […]

[2] = Mammalian toxicity, MTT colorimetric; type: cell-based, murine; conditions: mouse
Procedure: as §1, with “bioactivity. […]” for “bioactivity.”
Murine conjunctive fibroblasts NCTC clone 929 (ATCC) were maintained in 10% foetal calf serum supplemented RPMI-1640 medium (pH 7.2) at 37 °C in a humidified incubator with 5% CO2. […]
(§3) Biological activity assays […]
NCTC cells (6 × 10^4/well) were added to a 96-well plate. Treatments of the cells with selected compounds (serially diluted 1.5 to 200 μM) was performed in a humidified incubator for 96 h at 37 °C and with 5% CO2.
The MTT colorimetric method was used to determine the 50% cytotoxic concentration (CC50) and the selectivity index (CC50 against NCTC cells/IC50 against amastigotes).15 […]
[…] At 6 h and 24 h post-treatment, a 1 mL aliquot was taken for imaging. The cell cycle experiment was preformed twice independently.
Generation of mNG::RAD51 tagged cell line
The single-stranded DNA-binding protein RAD51, associated with DNA Repair, LmxM.28.0550 was tagged with endogenous fluorescent protein mNeonGreen (mNG) at the N-terminus. […]
Primers for constructs and sgRNA were designed using LeishGEdit (http://www.leishGEdit.net).
PCR was at 94 °C for 5 min, followed by 35 cycles at 94 °C (15 sec), 65 °C (15 sec), 72 °C (2 min) then finally 72 °C (1 min).
PCR was at 94 °C for 30 sec, followed by 30 cycles at 94 °C (30 sec), 60 °C (30 sec), 72 °C (30 sec) then finally 72 °C (2 min). […] Combined PCR products were precipitated for 20 min with 10 μL 3M sodium acetate and 300 μL EtOH, pelleted at 14000 min-1 30 min, washed once with 70% EtOH, re-pelleted and resuspended in […]
Promastigotes (1 × 10^7 cells) were combined with PCR products and transfected using the Amaxa Nucleofector II.17 Electroporation was performed using 2 mm cuvettes on the X-100 program, followed by immediate suspension in pre-warmed M199 medium. Successful transfectants were selected with 20 μg mL-1 Puromycin 15 h after transfection, taking 4 days to reach stable growth in culture. mNG::RAD51 nuclear foci studies mNG::RAD51 promastigotes (5 × 10^6 cells mL-1) in 7 mL of M199 medium were treated with 7 μL o f compound (S)-9a or (S)-9b dissolved in DMSO giving a final concentration of 50 μM. Phleomycin was used as a positive control at a final concentration of 25 μg mL-1. At T = 0, 15, 30, 60 min, and 2, 6, 24 h post-treatment a 0.8 mL aliquot was taken for imaging.

T. cruzi amastigotes = test: Antiamastigote assay (T. cruzi), ex vivo intracellular model using mice macrophages, microscopy; type: cell-based, Trypanosoma (T.) cruzi; conditions: Trypanosoma cruzi, Peritoneal macrophage, 48 h, ± SD, read-out: T. cruzi IC50 amastigotes
Procedure: (§4) T. cruzi also assumes several cell morphologies during its lifecycle, which differ between the insect vector and mammalian host. In the latter environment, the parasite transitions between extracellular bloodstream trypomastigotes and intracellular amastigotes; both forms are clinically relevant, particularly during the acute stage of Chagas disease.[34] In this work, antitrypanosomal activity was tested against both the amastigote form (evaluated microscopically using an ex vivo intracellular model using mice macrophages) and the trypomastigote form (using the resazurin in vitro assay).[33],[35] […] In silico predictions of pharmacokinetic profiles were carried out using the SwissADME webtool (see the Supporting Information for details).[36] […]
(§5) […] Cultivation was performed in 2% fetal calf serum supplemented RPMI-1640 medium.
(§6) The trypomastigotes were maintained in a humidified incubator at 37 °C and with 5% CO2. […]
(§7) Peritoneal macrophages were obtained via washing the peritoneal cavity of BALB/c mice with 10% foetal calf serum supplemented RPMI-1640 medium (pH 7.2). The macrophages were maintained in a humidified incubator at 37 °C and with 5% CO2.
as §3
Peritoneal macrophages (1 × 10^5 cells/well) obtained from the peritoneal cavity of BALB/C mice were added to 16-well chambers (NUNC, Thermo Fischer Scientific). The cells were infected with trypomastigotes (10:1 parasites/macrophage) for 2 h. Then treatment of the infected macrophages with selected compounds (serially diluted 1.2 to 100 μM) was performed in a humidified incubator for 48 h at 37 °C and with 5% CO2. The treated cells were fixed on slides using methanol, stained with Giemsa and observed under a light microscope (EVOS M5000, Thermo, USA) with digital image equipment. The infection index was used in order to determine the half inhibitory concentration (IC50) (no. infected macrophages × no. amastigotes / total no.

T. cruzi trypomastigotes = test: Antitrypomastigote assay (T. cruzi), resazurin; type: cell-based, Trypanosoma (T.) cruzi; conditions: 24 h, read-out: T. cruzi IC50 trypomastigotes
Procedure: as §4, §5, §6, §3
The half inhibitory concentration (IC50) was determined from a sigmoidal regression of the concentration-response curves generated in GraphPadPrism7. […]
Treatment of the cells with selected compounds (serially diluted 1.2 to 150 μM) was performed in a humidified incubator in RPMI 1640 medium for 24 h at 37 °C and with 5% CO2. Resazurin (0.011% in PBS) was added subsequently to verify parasite viability. Benznidazole was used as a standard drug. The optical density was determined at 570 nm using the FilterMax F5 (Molecular Devices). […]

L. infantum amastigotes = test: Antiamastigote assay (L. infantum), ex vivo intracellular model of mice macrophages, microscopy; type: cell-based, Leishmania (L.) infantum; conditions: 96 h, read-out: L. infantum IC50 amastigotes
Procedure: as §1, §2, §7, §3
Antiamastigote Assay (L. infantum)
Peritoneal macrophages (1 × 10^5/well) were added to a 16-well slide chambers (NUNC) and incubated with 5% CO2 at 37 °C. The cells were subsequently infected with L. infantum amastigotes (10:1 amastigotes/macrophage) for 24 h. Treatment of the cells with selected compounds (serially diluted 1.2 to 150 μM) was performed in a humidified incubator for 96 h at 37 °C and with 5% CO2. Untreated cells were used as a negative control and miltefosine was used as a standard drug. The treated cells were fixed on slides with methanol, stained with Giemsa and observed under a light microscope.13 The infection index was used in order to determine the half inhibitory concentration (IC50) (no. infected macrophages × no. amastigotes / total no. […]

[3] = Trypanosoma cruzi, ± SD, resazurin
[4] = Leishmania infantum, Peritoneal macrophage, ± SD, intracellular, peritoneal macrophages
[5] = ± SD, intracellular, peritoneal macrophages

Compound	IC50 ([1]; ± SD, MTT) [µM]	CC50 at 96 h [2] [µM]	IC50 (T. cruzi amastigotes) [µM]	IC50 (T. cruzi trypomastigotes; [3]) [µM]	IC50 (L. infantum amastigotes; [4]) [µM]	L. infantum IC50 promastigotes ([1]; ± SD, MTT)	IC50 (T. cruzi trypomastigotes; ± SD, resazurin) [µM]	IC50 [1] [µM]	CC50 at 96 h ([2]; ± SD, NCTC cells, MTT, 96 h, read-out: CC50) [µM]	IC50 (T. cruzi trypomastigotes; Trypanosoma cruzi) [µM]	IC50 (L. infantum amastigotes; Leishmania infantum, Peritoneal macrophage) [µM]	IC50 (L. infantum amastigotes; [5]) [µM]
COc1cc2c(cc1OC)[C@@H](Cc1ccc(Oc3cc(C[C@@H]4c5cc(OC)c(OC)cc5CCN4C)ccc3O)cc1)N(C)CC2 [(R,R)-13, (–)-dauricine]	3.2 ± 1.1	7 ± 1	> 100	3.7 ± 2.9	3.7 ± 0.6	–	–	–	–	–	–	–
COc1ccc(COc2ccc(C[C@H]3c4cc(OC)c(OC)cc4CCN3C)cc2Br)cc1 [(S)-9c]	5.2 ± 1.3	6.3 ± 2.3	3.3 ± 0.01	11.1 ± 1.7	> 150	–	–	–	–	–	–	–
COc1ccc(COc2ccc(C[C@@H]3c4cc(OC)c(OC)cc4CCN3C)cc2Oc2ccc(C[C@H]3c4cc(OC)c(OC)cc4CCN3C)cc2)cc1 [(R,S)-12]	0.4 ± 0.2	2.7 ± 1.6	> 100	1.3 ± 0.7	> 150	submicromolar	–	–	–	–	–	–
COc1cc2c(cc1OC)[C@@H](Cc1ccc(O)cc1)N(C)CC2 [(R)-10b, (–)-armepavine]	4.8 ± 0.8	> 200	> 100	107 ± 1.8	> 150	–	–	–	–	–	–	–
COc1ccc(COc2ccc(C[C@H]3c4cc(OC)c(OC)cc4CCN3C)cc2Oc2ccc(C[C@H]3c4cc(OC)c(OC)cc4CCN3C)cc2)cc1 [(S,S)-12]	1.1 ± 0.5	20.8 ± 5.4	> 100	5.6 ± 2.1	> 150	–	–	–	–	–	–	–
COc1ccc(COc2ccc(C[C@@H]3c4cc(OC)c(OC)cc4CCN3C)cc2Br)cc1 [(R)-9c]	3.5 ± 1.2	13.4 ± 1.3	> 100	< 10	> 150	–	8.5 ± 3.1	–	–	–	–	–
COc1ccc(C[C@@H]2c3cc(OC)c(OC)cc3CCN2C)cc1O [(R)-10a, (–)-laudanidine]	–	–	–	–	–	–	–	30.2 ± 4.8	> 200	> 150	> 150	–
COc1cc2c(cc1OC)[C@@H](Cc1ccc(OC)c(OCc3ccccc3)c1)N(C)CC2 [(R)-9b]	3.3 ± 1.6	57.3 ± 3.3	–	72.3 ± 3	13.1 ± 0.8	–	–	–	–	–	–	–
COc1cc2c(cc1OC)[C@@H](Cc1ccc(Br)cc1)N(C)CC2 [(R)-9a]	15.5 ± 5.8	86.8 ± 2.9	31.8 ± 4.3	28.3 ± 11.7	23.4 ± 3.4	–	–	–	–	–	–	–
O=C(Cn1ccnc1[N+](=O)[O-])NCc1ccccc1 [benznidazole, reference compound]	–	> 200	5 ± 1.5	12.8 ± 0.7	–	–	–	–	–	–	–	–
COc1cc2c(cc1OC)[C@@H](Cc1ccc(Oc3cc(C[C@H]4c5cc(OC)c(OC)cc5CCN4C)ccc3O)cc1)N(C)CC2 [(R,S)-13]	3.2 ± 1.7	13.3 ± 1.6	2.8 ± 0.6	10.1 ± 3.9	> 150	–	–	–	–	–	–	–
COc1cc2c(cc1OC)[C@H](Cc1ccc(OCc3ccccc3)cc1)N(C)CC2 [(S)-9d]	3.7 ± 0.2	6.6 ± 1.5	3.2 ± 0.5	< 10	< 10	–	7.6 ± 0.4	–	–	–	–	7.5 ± 2.2
CCCCCCCCCCCCCCCCOP(=O)([O-])OCC[N+](C)(C)C [miltefosine, reference compound]	–	120 ± 4.2	–	–	6.5 ± 3	–	–	–	–	–	–	–
COc1cc2c(cc1OC)[C@@H](Cc1ccc(Oc3cc(C[C@@H]4c5cc(OC)c(OC)cc5CCN4C)ccc3OC)cc1)N(C)CC2 [(R,R)-11, (−)-O-methyldauricine]	0.7 ± 0.1	11.4 ± 4.8	1.5 ± 0.2	7.2 ± 0.6	> 150	–	–	–	–	–	–	–
COc1cc2c(cc1OC)[C@@H](Cc1ccc(OC)c(Oc3ccc(C[C@H]4c5cc(OC)c(OC)cc5CCN4C)cc3)c1)N(C)CC2 [(R,S)-11]	0.6 ± 0.1	7.3 ± 0.7	> 100	6.5 ± 2.1	> 150	–	–	–	–	–	–	–
COc1cc2c(cc1OC)[C@H](Cc1ccc(Oc3cc(C[C@H]4c5cc(OC)c(OC)cc5CCN4C)ccc3OC)cc1)N(C)CC2 [(S,S)-11, (+)-O-methylthalibrine]	0.7 ± 0.01	11.4 ± 0.2	> 100	3.7 ± 3.6	> 150	–	–	–	–	–	–	–
COc1cc2c(cc1OC)[C@@H](Cc1ccc(OCc3ccccc3)cc1)N(C)CC2 [(R)-9d]	1.1 ± 0.5	28.1 ± 0.5	6.2 ± 5.9	16.5 ± 6.1	< 10	–	–	–	–	–	–	9.4 ± 0.5
